Data as given in ChEMBL document CHEMBL4480418, “Antibacterial activity of indolyl-quinolinium derivatives and study their mode of action” (Bioorg Med Chem, 2019).
Converted amounts (≈) assume the structure as drawn. The source made the active and inactive calls. The calls are words filed in the database; no cut-off is given here.

Key:
[1] = tested on: Klebsiella pneumoniae; test: Antimicrobial activity against NDM1 beta-lactamase expressing Klebsiella pneumoniae ATCC BAA-2470 measured after 18 hrs by broth microdilution method; assay type: functional; settings: ATCC BAA-2470, 18 h
[2] = tested on: Pseudomonas aeruginosa; test: Antimicrobial activity against multidrug-resistant Pseudomonas aeruginosa ATCC BAA-2108 measured after 18 hrs by broth microdilution method; assay type: functional; settings: ATCC BAA-2108, 18 h
[3] = tested on: Escherichia coli; test: Antimicrobial activity against Escherichia coli ATCC 25922 measured after 18 hrs by broth microdilution method; assay type: functional; settings: ATCC 25922, 18 h
[4] = tested on: Acinetobacter baumannii; test: Antimicrobial activity against multidrug-resistant Acinetobacter baumannii ATCC 19606 measured after 18 hrs by broth microdilution method; assay type: functional; settings: ATCC 19606 = CIP 70.34 = JCM 6841, 18 h
[5] = tested on: Bacillus subtilis; test: Antibacterial activity against Bacillus subtilis 168 measured after 18 hrs by broth microdilution method; assay type: functional; settings: subsp. subtilis str. 168, 18 h
[6] = tested on: Staphylococcus aureus; test: Antimicrobial activity against Staphylococcus aureus ATCC 25923 measured after 18 hrs by broth microdilution method; assay type: functional; settings: ATCC 25923, 18 h
[7] = tested on: Escherichia coli; test: Antimicrobial activity against NDM1 beta -lactamse expressing Escherichia coli ATCC BAA-2469 measured after 18 hrs by broth microdilution method; assay type: functional; settings: ATCC BAA-2469, 18 h
[8] = tested on: Staphylococcus aureus; test: Antimicrobial activity against penicillin-resistant Staphylococcus aureus ATCC 29213 measured after 18 hrs by broth microdilution method; assay type: functional; settings: ATCC 29213, 18 h
[9] = tested on: Enterococcus faecium; test: Antimicrobial activity against vancomycin-resistant Enterococcus faecium ATCC 700221 measured after 18 hrs by broth microdilution method; assay type: functional; settings: ATCC 700221, 18 h
[10] = tested on: Enterobacter cloacae; test: Antimicrobial activity against Ampc beta-lactamase expressing Enterobacter cloacae ATCC BAA-1143 measured after 18 hrs by broth microdilution method; assay type: functional; settings: ATCC BAA-1143, 18 h
[11] = tested on: Enterococcus faecalis; test: Antimicrobial activity against Enterococcus faecalis ATCC 29212 measured after 18 hrs by broth microdilution method; assay type: functional; settings: ATCC 29212, 18 h
[12] = tested on: Enterococcus faecium; test: Antimicrobial activity against drug-susceptible Enterococcus faecium ATCC 49624 measured after 18 hrs by broth microdilution method; assay type: functional; settings: ATCC 49624, 18 h
[13] = tested on: Staphylococcus aureus; test: Antimicrobial activity against methicillin-resistant Staphylococcus aureus ATCC 43300 measured after 18 hrs by broth microdilution method; assay type: functional; settings: ATCC 43300, 18 h
[14] = tested on: Staphylococcus aureus; test: Antimicrobial activity against methicillin-resistant Staphylococcus aureus ATCC BAA-41 measured after 18 hrs by broth microdilution method; assay type: functional; settings: ATCC BAA-41, 18 h
[15] = molecular target: T1, Cell division protein FtsZ (Bacillus subtilis (strain 168)) (UniProt P17865); test: Inhibition of cell division function of FtsZ in Bacillus subtilis 168 assessed as increase in cell length at MIC after 4 hrs by FM4-64 dye based confocal microscopic method; settings: Bacillus subtilis subsp. subtilis str. 168
T1 sequence (whole entry): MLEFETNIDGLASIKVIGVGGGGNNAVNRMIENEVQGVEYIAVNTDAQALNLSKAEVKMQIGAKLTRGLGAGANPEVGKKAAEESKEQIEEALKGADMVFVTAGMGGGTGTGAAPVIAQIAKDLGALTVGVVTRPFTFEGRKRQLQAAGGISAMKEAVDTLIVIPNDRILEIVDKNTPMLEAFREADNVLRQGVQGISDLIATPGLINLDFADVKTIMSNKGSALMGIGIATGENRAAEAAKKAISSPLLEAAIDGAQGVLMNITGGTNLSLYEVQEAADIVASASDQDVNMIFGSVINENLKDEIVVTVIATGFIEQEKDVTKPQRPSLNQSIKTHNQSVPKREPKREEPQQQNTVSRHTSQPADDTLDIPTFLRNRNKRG

[16] = tested on: Staphylococcus aureus; test: Antimicrobial activity against penicillin-resistant Staphylococcus aureus ATCC 29213 assessed as ratio of MIC after and before 15 serial passages preincubated followed by replating and measured after 24 hrs; assay type: functional

Row | Structure (SMILES) | MIC [1] [µg/mL] | MIC [2] [µg/mL] | MIC [3] [µg/mL] | MIC [4] [µg/mL] | MIC [5] [µg/mL] | MIC [6] [µg/mL] | MIC [7] [µg/mL] | MIC [8] [µg/mL] | MIC [9] [µg/mL] | MIC [10] [µg/mL] | MIC [11] [µg/mL] | MIC [12] [µg/mL] | MIC [13] [µg/mL] | MIC [14] [µg/mL] | inhibition [15] | Ratio [16]
1 | C[n+]1c(/C=C/c2cc3ccccc3[nH]2)cc(N2CCOCC2)c2ccccc21.[I-] | > 64 | > 64 | 64 | > 64 | 8 | 16 | 64 | 16 | 32 | > 64 | 64 | 16 | 16 | 16 | – | –
2 | CC1CCN(c2cc(/C=C/c3c[nH]c4ccccc34)[n+](C)c3ccccc23)CC1.[I-] | > 64 | > 64 | 16 | 32 | 4 | 2 | 32 | 4 | 4 | > 64 | 4 | 2 | 4 | 4 | Active | –
3 | O=C(O)c1cn(C2CC2)c2cc(N3CCNCC3)c(F)cc2c1=O [CIPROFLOXACIN] | 64 (≈ 193 µM) | 64 (≈ 193 µM) | < 0.125 | 2 (≈ 6.04 µM) | 2 (≈ 6.04 µM) | < 0.125 | > 64 | 2 (≈ 6.04 µM) | > 64 | – | 4 (≈ 12.1 µM) | 32 (≈ 96.6 µM) | 2 (≈ 6.04 µM) | > 64 | – | –
4 | C[n+]1c(/C=C/c2c[nH]c3ccccc23)cc(N2CCCC2)c2ccccc21.[I-] | > 64 | > 64 | 32 | 64 | 8 | 4 | 32 | 2 | 8 | > 64 | 16 | 4 | 16 | 4 | – | –
5 | C[n+]1c(/C=C/c2c[nH]c3ccccc23)cc(N2CCOCC2)c2ccccc21.[I-] | > 64 | > 64 | 64 | > 64 | 16 | 16 | > 64 | 16 | 32 | > 64 | 16 | 16 | 32 | 32 | – | –
6 | CC1(C)S[C@@H]2[C@H](NC(=O)Cc3ccccc3)C(=O)N2[C@H]1C(=O)O [PENICILLIN G] | > 64 | > 64 | 1 (≈ 2.99 µM) | 64 (≈ 191 µM) | 32 (≈ 95.7 µM) | < 0.125 | > 64 | > 64 | > 64 | > 64 | 0.5 (≈ 1.5 µM) | 0.25 (≈ 0.748 µM) | > 64 | > 64 | – | –
7 | CC1CCN(c2cc(/C=C/c3cc4ccccc4[nH]3)[n+](C)c3ccccc23)CC1.[I-] | > 64 | > 64 | 32 | > 64 | 8 | 4 | 32 | 4 | 8 | > 64 | 8 | 4 | 8 | 8 | – | –
8 | CO[C@H]1/C=C/O[C@@]2(C)Oc3c(C)c(O)c4c(O)c(c(/C=N/N5CCN(C)CC5)c(O)c4c3C2=O)NC(=O)/C(C)=C\C=C\[C@H](C)[C@H](O)[C@@H](C)[C@@H](O)[C@@H](C)[C@H](OC(C)=O)[C@@H]1C [RIFAMPIN] | – | – | – | – | – | – | – | – | – | – | – | – | – | – | – | 2000
9 | C[n+]1c(/C=C/c2cc3ccccc3[nH]2)cc(NCCN2CCCCC2)c2ccccc21.[I-] | > 64 | > 64 | 32 | 64 | 16 | 16 | 64 | 16 | 32 | > 64 | 64 | 16 | 32 | 32 | – | –
